According to US20240115649A1, “CASPASE INHIBITION TO ENHANCE REGENERATION AND REPAIR AFTER SKIN OR GUT INJURY AND TO TREAT BACTERIAL OR VIRAL INFECTIONS” (The Johns Hopkins University, priority 2020, published 2024):
Where a SMILES comes first, the peptide text is derived from it. The star is where a group is joined. Cbz = O=C(OCc1ccccc1)*; CH2F = FC*

Assays:
BMDMs = assay: BMDM cultures with live S. aureus ± caspase inhibitors; conditions: live S. aureus 6 hours, Q-VD-OPH 10 μg/mL, Emricasan 9 μg/mL
[1] = system: mouse epithelial keratinocytes; assay: Mouse epithelial keratinocyte culture (qRT-PCR, immunoblot); conditions: for IL-36α protein (whole-cell lysates): mouse epithelial keratinocytes
mouse neutrophils = assay: Neutrophil cultures with live S. aureus ± caspase inhibitors; conditions: live S. aureus 6 hours, Q-VD-OPH 10 μg/mL, Emricasan 9 μg/mL
human keratinocytes = assay: Human keratinocyte culture (qRT-PCR, immunostaining)
Method: Human and Mouse Keratinocyte Isolation and Culture.
Quantitative real-time PCR (qRT-PCR).
Immunofluorescence, immunocytochemistry, and immunohistochemistry. […] After washing and permeabilization in TBS-T universal buffer (0.2% Triton X-100 in tris-buffered saline), sections were blocked at room-temperature in 5% goat, donkey or fetal bovine serum with 1% bovine serum albumin. […] Following subsequent washing, sections were incubated in fluorescent-dye conjugated secondary antibodies diluted in antibody diluent for 1 hour at room temperature. After final washing, sections were mounted with […] ® Hardset™ Antifade Mounting Medium with DAPI (Vector Laboratories, H-1500) for nuclear staining. Human keratinocytes were prepared similarly, with the exception of antigen retrieval. All slides were imaged using either the DFC365FX (Leica) or Eclipse E-800 (Nikon) at 10×, 20×, and 40× magnifications.

neogenic hair follicles = assay: Wound Induced Hair Neogenesis (WIHN) assay; assay type: in vivo, mice
Method: Wound Induced Hair Neogenesis (WIHN) Assay. All in vivo experimental surgical procedures were performed as previously characterized ^1,2,6-8. In short, after exposure to vaporizing anesthesia (Baxter, Isoflurane) the dorsal side of male and female 3-week-old (21 days) mice were shaved at approximately 8-10 g of weight. Using surgical scissors, approximately 1.26 cm^2×1.25 cm^2 of skin was excised creating wounds deep into the fascia. At 3 days post-wounding, a single dose (50 μl) of 100 μg/mL high molecular weight (HMW) polyinosinic-polycytidylic acid (Poly (I:C)) (Invivogen, tlrl-pic) was administered underneath the scab site via injection in both wild-type and transgenic mice as previously described^2,8. For functional experiments characterizing IL-36 on WIHN, a single dose (50 μl) of 1 μg/mL recombinant mouse IL-36α protein (R&D Systems, 7059-ML/CF) was injected underneath the scab site at 7 days post-wounding. For rescue experiments using the small molecule, broad spectrum pan-caspase inhibitor, 20 ul of 5 mg/mL Q-VD-OPh (in DMSO) was diluted 130 μL of phosphate-buffered saline (PBS) (1.33 mM final concentration) and injected intraperitoneally in mice 24 hours prior to wounding and approximately 10 days after wounding (scab detachment).
Immunofluorescence, immunocytochemistry, and immunohistochemistry.

[2] = no significant differences vs no treatment
[3] = RNase L siRNA transfected human keratinocytes, 10 μg/ml

Molecule: C[C@H](NC(=O)C(=O)Nc1ccccc1C(C)(C)C)C(=O)N[C@@H](CC(=O)O)C(=O)COc1c(F)c(F)cc(F)c1F [Emricasan]
- percentages of TNF+ BMDMs (BMDMs): 33.53%
- viable cells (Zombie UV negative cells) (BMDMs; [2]): ~80%
- IL-36α protein (whole-cell lysates) [1]: increased
- percentages of TNF+ neutrophils (mouse neutrophils): 25.47%
- viable cells (Zombie UV negative cells) (mouse neutrophils; [2]): ~50%

Molecule: CC(C)(O)c1coc(S(=O)(=O)NC(=O)Nc2c3c(cc4c2CCC4)CCC3)c1 [MCC950]
- regeneration (morphogenesis) markers (human keratinocytes; MCC950 100 μM, further increased by exogenous dsRNA addition): greater regeneration markers than controls

Molecule: COC(=O)CC[C@H](NC(=O)[C@H](Cc1c[nH]c2ccccc12)NC(=O)OCc1ccccc1)C(=O)N[C@@H](Cc1cnc[nH]1)C(=O)N[C@@H](CC(=O)OC)C(=O)CF [Z-WEHD-FMK] (Cbz-WE(OMe)HD(OMe)-CH2F)
- IL-36 receptor (IL36r) expression ([1]; 48 hrs treatment): not affected
- IL-36 receptor antagonist (IL-36m) protein or mRNA levels ([1]; 48 hrs treatment): not affected
- Tlr3 expression ([1]; 48 hrs treatment): elevated
- caspase gene mRNA (inflammatory caspases 1 and 4) ([1]; 48 hrs treatment): elevated
- IL-36α protein (whole-cell lysates) [1]: increased

Molecule: polyinosinic-polycytidylic acid [poly (I:C)]
- WIHN (hair follicle regeneration) (neogenic hair follicles; Il36r^−/− mice): not responsive
- WIHN (neogenic hair follicles; Rnasel^−/− mice, poly (I:C) under the scab 3 days post-wounding): intact super-increase
- differentiation markers (human keratinocytes; [3]): inhibits differentiation markers
- morphogenesis markers (human keratinocytes; [3]): induces multiple morphogenesis markers
- Il36α and Casp1 levels ([1]; after siRNA-mediated RNase L loss, poly (I:C) 10 μg/ml, 48 hrs): boosted

B1: recombinant IL-36α: recombinant IL-36α used to treat human keratinocytes (protein, UniProt Q9UHA7 6-158, looked up)
Interleukin-36 alpha: KIDTPQQGSIQDINHRVWVLQDQTLIAVPRKDRMSPVTIALISCRHVETLEKDRGNPIYLGLNGLNLCLMCAKVGDQPTLQLKEKDIMDLYNQPEPVKSFLFYHSQSGRNSTFESVAFPGWFIAVSSEGGCPLILTQELGKANTTDFGLTMLF
- WNT7B mRNA expression (human keratinocytes; qRT-PCR): promotes WNT7B expression

B2: rmIL-36a: recombinant mouse IL-36α protein (R&D Systems, 7059-ML/CF) (protein, UniProt Q9JLA2 8-160, looked up)
Interleukin-36 alpha: RAASPSLRHVQDLSSRVWILQNNILTAVPRKEQTVPVTITLLPCQYLDTLETNRGDPTYMGVQRPMSCLFCTKDGEQPVLQLGEGNIMEMYNKKEPVKASLFYHKKSGTTSTFESAAFPGWFIAVCSKGSCPLILTQELGEIFITDFEMIVVH
- increase in the number of neogenic hair follicles (neogenic hair follicles; 50 μl of 1 μg/mL injected underneath the scab at 7 days post-wounding, vs vehicle-treated controls): > 2 fold
